Laboratory results as given in patent US9023405B2, “Pharmaceutical composition using stryphnodendron extracts for treating HPV infections” (priority 2010, dated 2015).

Key:
[1] = tested on: human papillomavirus (HPV) lesions; settings: cited from earlier work; for rate of local relapses: direct application on moles
skin incisions = assay: healing tests (skin incisions); type: in vivo, albino rabbits of the New Zealand lineage; settings: daily topical treatment of incisions
From the text: Thirty-six healthy adult albino rabbits of the New Zealand lineage weighing between 1.250 and 1.700 Kg were used for the healing tests. The animals were shaved and housed in individual cages at room temperature, in 12-hour light-dark cycles, with PURINA animal food and water ad libitum. The rabbits were anesthetized with local administration of lidocaine hydrochloride and inhalation of sulfuric ether. Four incisions were made on the skin of each rabbit until the subcutaneous layer was reached. A distance of 3 cm was maintained between each incision. The animals were divided into three groups. The group A, control, received NaCl 0.9% solution during the 14 days of treatment period. Group B was treated with rifamycin and group C received the ethanolic extract of barbatiman barks, resuspended in water (0.1 g mL^−1). The incisions remained open, and the rabbits were treated from the first day of the incision until the 14th day after the incision was made. On the 7th day, pieces were removed from ⅓ of the rabbits and part of the liver for histological analysis, and the animals were then killed. On 14th day, the remaining rabbits were killed, and the pieces and part of the liver were removed for histological analysis. […]

Structure (SMILES): O=C(O)C(Cl)Cl [dichloroacetic acid, dichloroacetic]
- rate of local relapses [1]: around 30%

Structure (SMILES): CC(C)Cn1cnc2c(N)nc3ccccc3c21 [Imiquimod]
- cure rate ([1]; condyloma acuminata of external and perianal genitalia): 50-56%
- patients with headache, myalgia, and flu-like symptoms ([1]; in vivo): less than 5%

Structure (SMILES): O=C(O)C(Cl)(Cl)Cl [trichloroacetic acid, trichloroacetic acids]
- rate of local relapses [1]: around 30%

Structure (SMILES): CO[C@H]1/C=C/O[C@@]2(C)Oc3c(C)c(O)c4c(O)c(cc(O)c4c3C2=O)NC(=O)/C(C)=C\C=C\[C@H](C)[C@H](O)[C@@H](C)[C@@H](O)[C@@H](C)[C@H](OC(C)=O)[C@@H]1C [rifamycin]
- purulent secretion (skin incisions): present purulent secretion
